Assay results: publication PMC9939733 (The Journal of Biological Chemistry, 2023)
Where a chain is given by its changes, count along the chain named.

Experiments:
FIH = settings: ref [22], [23]; cited from earlier work
WT IDH2 [1] = target: T1, WT IDH2 (Homo sapiens, UniProt P48735); experiment: Absorbance assay, WT activity in the presence of equimolar DL-isocitrate (inhibition); type: biochemical; settings: […] isocitrate and […] test compound, 75 μM NADP+, 2.0 nM WT IDH2
T1 construct: made in house; host or cells: Sf21 insect cells (cell pellets prepared at Evotec)
T1 sequence (P48735 40-452): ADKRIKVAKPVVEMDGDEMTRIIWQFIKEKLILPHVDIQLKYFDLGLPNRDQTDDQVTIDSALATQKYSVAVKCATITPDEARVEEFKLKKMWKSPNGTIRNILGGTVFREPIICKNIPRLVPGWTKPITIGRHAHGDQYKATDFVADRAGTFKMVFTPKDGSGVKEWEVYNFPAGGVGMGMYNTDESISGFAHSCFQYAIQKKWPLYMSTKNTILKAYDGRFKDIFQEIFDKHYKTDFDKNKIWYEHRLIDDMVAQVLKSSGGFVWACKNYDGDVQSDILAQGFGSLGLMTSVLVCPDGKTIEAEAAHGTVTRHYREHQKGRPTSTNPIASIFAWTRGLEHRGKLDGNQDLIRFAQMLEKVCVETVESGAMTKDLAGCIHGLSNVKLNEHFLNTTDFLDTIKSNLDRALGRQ
Method in brief: (§1)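 Reactions were run as technical quadruplicates. Compounds were dispensed with a simultaneous pipettor, and each assay was started by adding reagent from a bulk dispenser.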

WT IDH1 [2] = target: T2, WT IDH1 (Homo sapiens, UniProt O75874); experiment: as above; type: biochemical; settings: […] isocitrate and […] test compound, 75 μM NADP+, 2.0 nM WT IDH1
T2 construct: made in house; host or cells: Escherichia coli BL21(DE3) pLyS
Method in brief: as §1

[3] = system: glutamic oxaloacetic aminotransferase; design: method as in earlier work; settings: ref [66]; cited from earlier work
WT IDH2 [4] = target: T1, WT IDH2; experiment: Absorbance assay, substrate activity in the absence of DL-isocitrate; type: biochemical; settings: no DL-isocitrate; […] test compound, 75 μM NADP+, 2.0 nM WT IDH2; compared to DL-isocitrate
Method in brief: as §1

WT IDH1 [5] = target: T2, WT IDH1; experiment: as above; type: biochemical; settings: no DL-isocitrate; […] test compound, 75 μM NADP+, 2.0 nM WT IDH1; compared to DL-isocitrate
Method in brief: as §1

AspH = settings: ref [22], [23]; cited from earlier work
R140Q IDH2 = target: T3, R140Q IDH2 (Homo sapiens, UniProt P48735, R140Q); experiment: Absorbance assay, variant activity in the presence of equimolar 2OG (inhibition screen); type: biochemical; settings: 6.0 mM 2OG and 6.0 mM test compound, 0.03 μM R140Q IDH2, 50 μM NADPH
T3 construct: made in house; host or cells: Sf21 insect cells (cell pellets prepared at Evotec)
T3 sequence (P48735 40-452 R140Q): T1 sequence (P48735 40-452) with R101Q
Method in brief: as §1

R172K IDH2 = target: T4, R172K IDH2 (Homo sapiens, UniProt P48735, R172K); experiment: as above; type: biochemical; settings: 1.0 mM 2OG and 1.0 mM test compound, 0.03 μM R172K IDH2, 50 μM NADPH
T4 construct: made in house; host or cells: Sf21 insect cells (cell pellets prepared at Evotec)
T4 sequence (P48735 40-452 R172K): T1 sequence (P48735 40-452) with R133K
Method in brief: as §1

R132H IDH1 = R132H IDH1 (Homo sapiens, UniProt O75874, R132H); experiment: as above; type: biochemical; design: made in house; host or cells: Escherichia coli BL21(DE3) pLyS; settings: […] 2OG and […] test compound, 0.03 μM R132H IDH1, 50 μM NADPH
Method in brief: as §1

T2 sequence (O75874 whole entry): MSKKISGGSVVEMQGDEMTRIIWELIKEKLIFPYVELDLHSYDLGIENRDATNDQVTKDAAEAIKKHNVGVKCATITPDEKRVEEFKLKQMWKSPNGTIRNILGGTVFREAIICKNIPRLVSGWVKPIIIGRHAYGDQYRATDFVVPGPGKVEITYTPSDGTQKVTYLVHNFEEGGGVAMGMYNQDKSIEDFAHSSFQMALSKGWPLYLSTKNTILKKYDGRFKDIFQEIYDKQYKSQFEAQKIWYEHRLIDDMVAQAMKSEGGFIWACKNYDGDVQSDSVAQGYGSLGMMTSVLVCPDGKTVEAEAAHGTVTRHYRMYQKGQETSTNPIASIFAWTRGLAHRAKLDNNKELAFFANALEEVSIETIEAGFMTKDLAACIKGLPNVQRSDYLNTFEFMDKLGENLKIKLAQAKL
Chain of R132H IDH1 (O75874 whole entry R132H): as the sequence (O75874 whole entry) above, with R132H counted along it

Structure (SMILES): CC(C)(CC(=O)C(=O)O)C(=O)O [compound 13, 4,4-dimethyl-2OG]
- inhibition of FIH (FIH): does not inhibit
- activity [%] (%-substrate conversion after 20 min incubation) (WT IDH2 [1]): 101±7%
- activity [%] (%-substrate conversion after 20 min incubation) (WT IDH1 [2]): 106±4%
- substrate efficiency compared with 2OG [3]: less efficient substrate
- activity [%] (%-substrate conversion after 20 min incubation) (WT IDH2 [4]): < 10%
- activity [%] (%-substrate conversion after 20 min incubation) (WT IDH1 [5]): < 10%
- inhibition of AspH (AspH): efficient inhibitor
- activity [%] (%-substrate conversion after 20 min incubation) (R140Q IDH2): 117 ± 6%
- activity [%] (%-substrate conversion after 20 min incubation) (R172K IDH2): 106 ± 6%
- activity [%] (%-substrate conversion after 20 min incubation) (R132H IDH1): 118 ± 20%
